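Tested at 5 concentrations; 48 h exposure; 96-well plates; endpoints linearly interpolated, else capped at highest concentration. GI50 marks 50% less growth.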 Active and inactive are the calls of the source. Cut-off read from the data, not from the text of the source: active = GI50 up to about 1.1 µM and inactive = higher. Where a SMILES comes first, the peptide text is derived from it. The star is where a group is joined. Cbz = O=C(OCc1ccccc1)*; Boc = CC(C)(C)OC(=O)*; Bn = c1ccc(C*)cc1
Columns and labels:
Assay in all cases: DTP human tumour cell line panel, 48 h
CAKI-1 = tested on: CAKI-1
MDA-N = tested on: MDA-N
LOX IMVI = tested on: LOX IMVI
OVCAR-3 = tested on: OVCAR-3
SK-MEL-5 = tested on: SK-MEL-5
OVCAR-4 = tested on: OVCAR-4
CCRF-CEM = tested on: CCRF-CEM
MDA-MB-231 = tested on: MDA-MB-231
HL-60 = tested on: HL-60
786-0 = tested on: 786-0
UACC-62 = tested on: UACC-62
T47D = tested on: T47D
RXF 393 = tested on: RXF 393
ACHN = tested on: ACHN
SK-MEL-2 = tested on: SK-MEL-2
HT-29 = tested on: HT-29
RPMI-8226 = tested on: RPMI-8226
SF-539 = tested on: SF-539
SNB-75 = tested on: SNB-75
SK-OV-3 = tested on: SK-OV-3

In the case of `COc1ccc(CC(O)CN2CCOCC2)cc1` (configuration not stated), the GI50 (CAKI-1) is reported as > 100 µM (inactive), the GI50 (MDA-N) is reported as > 100 µM (inactive) and the GI50 (LOX IMVI) is reported as > 100 µM (inactive). The GI50 (OVCAR-3) was > 100 µM (inactive), the GI50 (SK-MEL-5) was > 100 µM (inactive) and the GI50 (OVCAR-4) was > 100 µM (inactive). The GI50 (CCRF-CEM) was > 100 µM (inactive), the GI50 (MDA-MB-231) was > 100 µM (inactive) and the GI50 (HL-60) was > 100 µM (inactive). For the same molecule, the GI50 (786-0) was > 100 µM (inactive), the GI50 (UACC-62) was > 100 µM (inactive) and the GI50 (T47D) was > 100 µM (inactive). The GI50 (RXF 393) was > 100 µM (inactive), the GI50 (ACHN) was > 100 µM (inactive) and the GI50 (SK-MEL-2) was > 100 µM (inactive). For the same molecule, the GI50 (HT-29) was > 100 µM (inactive).
In the case of `Nc1ccc2c(c1)C(=O)c1ccccc1-2`, the GI50 (CAKI-1) is reported as 56.5 µM (inactive), the GI50 (RPMI-8226) is reported as > 100 µM (inactive) and the GI50 (LOX IMVI) is reported as 73.1 µM (inactive). The GI50 (OVCAR-3) was 55.7 µM (inactive), the GI50 (SK-MEL-5) was > 100 µM (inactive) and the GI50 (OVCAR-4) was > 100 µM (inactive). For the same molecule, the GI50 (CCRF-CEM) was 71.6 µM (inactive), the GI50 (MDA-MB-231) was > 100 µM (inactive) and the GI50 (HL-60) was 30.2 µM (inactive). For the same molecule, the GI50 (786-0) was > 100 µM (inactive), the GI50 (UACC-62) was > 100 µM (inactive) and the GI50 (T47D) was 61.8 µM (inactive). For the same molecule, the GI50 (RXF 393) was > 100 µM (inactive), the GI50 (ACHN) was 72.9 µM (inactive) and the GI50 (SF-539) was > 100 µM (inactive). The GI50 (SNB-75) was > 100 µM (inactive), the GI50 (SK-MEL-2) was > 100 µM (inactive) and the GI50 (HT-29) was > 100 µM (inactive).
In the case of `CCCCC(=O)c1ccc2ccccc2c1O`, the GI50 (CAKI-1) is reported as > 100 µM (inactive), the GI50 (RPMI-8226) is reported as 35.5 µM (inactive) and the GI50 (LOX IMVI) is reported as > 100 µM (inactive). For the same molecule, the GI50 (SK-MEL-5) was > 100 µM (inactive), the GI50 (OVCAR-4) was > 100 µM (inactive) and the GI50 (CCRF-CEM) was 42.8 µM (inactive). The GI50 (MDA-MB-231) was 66.4 µM (inactive), the GI50 (SK-OV-3) was > 100 µM (inactive) and the GI50 (HL-60) was 51.3 µM (inactive). The GI50 (786-0) was > 100 µM (inactive), the GI50 (UACC-62) was > 100 µM (inactive) and the GI50 (T47D) was 49.2 µM (inactive). The GI50 (RXF 393) was 99.1 µM (inactive), the GI50 (ACHN) was > 100 µM (inactive) and the GI50 (SF-539) was > 100 µM (inactive). The GI50 (SNB-75) was > 100 µM (inactive), the GI50 (SK-MEL-2) was > 100 µM (inactive) and the GI50 (HT-29) was > 100 µM (inactive).
For `NS(=O)(=O)c1ccc(CNc2nc(-c3cccs3)nc3ccc(I)cc23)cc1`, the GI50 (CAKI-1) was 6.15 µM (inactive), the GI50 (RPMI-8226) was 18.6 µM (inactive) and the GI50 (MDA-N) was 19.5 µM (inactive). For the same molecule, the GI50 (LOX IMVI) was 14.8 µM (inactive), the GI50 (OVCAR-3) was 11.2 µM (inactive) and the GI50 (SK-MEL-5) was 14.1 µM (inactive). The GI50 (OVCAR-4) was 10.7 µM (inactive), the GI50 (SK-OV-3) was 22.6 µM (inactive) and the GI50 (786-0) was 17.5 µM (inactive). For the same molecule, the GI50 (UACC-62) was 16.5 µM (inactive), the GI50 (T47D) was 0.222 µM (active) and the GI50 (RXF 393) was 19.6 µM (inactive). The GI50 (ACHN) was 18.4 µM (inactive), the GI50 (SF-539) was 11.2 µM (inactive) and the GI50 (SNB-75) was 21.6 µM (inactive). For the same molecule, the GI50 (HT-29) was 19.4 µM (inactive).
For `CC(C)(C)OC(=O)NC(Cc1ccc(OCc2ccccc2)cc1)C(=O)NC(CCCCNC(=O)OCc1ccccc1)C(=O)O` (configuration not stated) (Boc-Tyr(Bn)-Lys(Cbz)-OH; configuration not given here), the GI50 (RPMI-8226) was 32.7 µM (inactive), the GI50 (MDA-N) was 40.1 µM (inactive) and the GI50 (SK-MEL-5) was 40.6 µM (inactive). The GI50 (CCRF-CEM) was > 100 µM (inactive), the GI50 (MDA-MB-231) was > 100 µM (inactive) and the GI50 (HL-60) was 34.7 µM (inactive). For the same molecule, the GI50 (786-0) was 54.1 µM (inactive), the GI50 (UACC-62) was 20.5 µM (inactive) and the GI50 (RXF 393) was 17.8 µM (inactive). The GI50 (SNB-75) was > 100 µM (inactive), the GI50 (SK-MEL-2) was 28 µM (inactive) and the GI50 (HT-29) was 62.1 µM (inactive).
In the case of `O=c1[nH]/c(=C/c2cccs2)c(=O)[nH]/c1=C/c1ccc(OCc2ccccc2)cn1`, the GI50 (CAKI-1) is reported as 0.0312 µM (active), the GI50 (RPMI-8226) is reported as 0.0618 µM (active) and the GI50 (MDA-N) is reported as 0.0164 µM (active). The GI50 (LOX IMVI) was 57.1 µM (inactive), the GI50 (OVCAR-3) was < 0.0146 µM (active) and the GI50 (SK-MEL-5) was 0.0515 µM (active). The GI50 (OVCAR-4) was 0.0836 µM (active), the GI50 (CCRF-CEM) was 0.0327 µM (active) and the GI50 (MDA-MB-231) was 0.219 µM (active). The GI50 (SK-OV-3) was 0.0426 µM (active), the GI50 (HL-60) was < 0.0182 µM (active) and the GI50 (786-0) was 0.061 µM (active). For the same molecule, the GI50 (UACC-62) was 0.0638 µM (active), the GI50 (RXF 393) was 0.0506 µM (active) and the GI50 (ACHN) was 3.24 µM (inactive). For the same molecule, the GI50 (SF-539) was 0.123 µM (active), the GI50 (SNB-75) was 0.027 µM (active) and the GI50 (SK-MEL-2) was 0.0561 µM (active). For the same molecule, the GI50 (HT-29) was 0.124 µM (active).
For `COc1cc(OC)cc(C(=O)CC(=O)c2cc(OC)cc(OC)c2)c1`, the GI50 (RPMI-8226) was > 100 µM (inactive), the GI50 (MDA-N) was > 100 µM (inactive) and the GI50 (OVCAR-3) was > 100 µM (inactive). The GI50 (SK-MEL-5) was > 100 µM (inactive), the GI50 (CCRF-CEM) was 63.5 µM (inactive) and the GI50 (SK-OV-3) was > 100 µM (inactive). For the same molecule, the GI50 (HL-60) was 6.01 µM (inactive), the GI50 (786-0) was > 100 µM (inactive) and the GI50 (UACC-62) was > 100 µM (inactive). For the same molecule, the GI50 (T47D) was > 100 µM (inactive), the GI50 (RXF 393) was > 100 µM (inactive) and the GI50 (ACHN) was > 100 µM (inactive). For the same molecule, the GI50 (SF-539) was > 100 µM (inactive) and the GI50 (SNB-75) was > 100 µM (inactive).
In the case of `C=CC(=O)NCCC(=O)OCn1cc(F)c(=O)[nH]c1=O`, the GI50 (CAKI-1) is reported as 3.2 µM (inactive), the GI50 (RPMI-8226) is reported as 1.75 µM (inactive) and the GI50 (MDA-N) is reported as 1.56 µM (inactive). For the same molecule, the GI50 (LOX IMVI) was 4.34 µM (inactive), the GI50 (OVCAR-3) was 10.5 µM (inactive) and the GI50 (SK-MEL-5) was 3.67 µM (inactive). For the same molecule, the GI50 (OVCAR-4) was 0.759 µM (active), the GI50 (CCRF-CEM) was 16.7 µM (inactive) and the GI50 (SK-OV-3) was 16.3 µM (inactive). The GI50 (HL-60) was 0.425 µM (active), the GI50 (786-0) was 2.92 µM (inactive) and the GI50 (UACC-62) was 4.08 µM (inactive). The GI50 (T47D) was 83.2 µM (inactive), the GI50 (RXF 393) was 10.1 µM (inactive) and the GI50 (ACHN) was 5.02 µM (inactive). The GI50 (SF-539) was 2.65 µM (inactive), the GI50 (SNB-75) was 19.4 µM (inactive) and the GI50 (SK-MEL-2) was 7.93 µM (inactive). The GI50 (HT-29) was 4.12 µM (inactive).
